Entries after “also recorded” stand apart in the source; their conditions may differ. Like-named read-outs stand apart in the source and are kept apart here.
Key:
[1] = tested on: MCF7 cancer cell line; test: SRB assay of antiproliferative activity, MCF7; format: cell-based; conditions: for GI50: Homo sapiens, MCF7, SRB assay, 48 h, mean ± standard error (n = 3)
Procedure: (§1) Breast cancer cell line MCF7 and colorectal carcinoma cell line HCT116 were obtained from the National Cancer Institute (MTA Number: 2702-09). Cells were cultured in complete RPMI 1640 medium (Hyclone, Logan, UT, USA) containing 10% FBS (Hyclone, Logan, UT, USA) in an atmosphere of 5% CO 2/100% humidity at 37 °C. Each investigated compound was diluted using DMSO to make a stock solution. It was treated by mixing with cell culture medium (RPMI1640 containing 10% FBS (Hyclone, Logan, UT, USA)) so that the final concentration of the drug was 0.001, 0.01, 0.1, 1, or 10 uM. There was no compound precipitated upon treatment in the culture medium.
(§2) The SRB assay was performed following the methodology of previously published studies. In brief, the cells (100 μL medium containing 5000 HCT116 or 10,000 MCF7 cells/well) were incubated in 96-well microtiter plates. After 24 h, the drug was added (100 μL) to each well and the cultures were incubated for 48 h at 37 °C. The cells were fixed in 50% TCA (50 μL per well) for 1 h at 4 °C. The liquid was removed from the plate, which was then rinsed five times with water and allowed to dry at room temperature (RT). Washed cells were stained for 10 min at RT with 0.4% SRB (100 μL per well). After staining, the plate was washed 3 times with 1% glacial acetic acid and dried at RT. The SRB stain was then solubilized in 10 mM Tris and absorbances were read at 515 nm. The effect of the drugs was expressed in terms of the GI50 (the concentration resulting in 50% maximal inhibition of cell proliferation). […]

[2] = tested on: HCT116 cancer cell line; test: SRB assay of antiproliferative activity, HCT116; format: cell-based; conditions: Homo sapiens, HCT-116, 48 h, mean ± standard error (n = 3)
Procedure: as §1, §2

[3] = tested on: normal cell line HEK293; test: SRB assay of antiproliferative activity on normal cells; format: cell-based; conditions: HEK293, 48 h, Figure 3
Procedure: The antiproliferative activity of compounds 8a, 8h, and 8i was evaluated in a sulforhodamine B (SRB) assay using normal cell line HEK293 cells. Cells were treated for 48 h under the same conditions used for the assessment of the antiproliferative activity on the cancer cells.

[4] = tested on: MCF7 cancer cell line; parameters: method as in PMID 35217379; conditions: cited from earlier work

Row | SMILES | GI50 [1] [µM] | melting point [°C] | GI50 [2] [µM] | potency compared to the positive control drug Irinotecan ([1]; MCF7 cancer cell line, ratio of GI50 values) [fold] | cell growth inhibitory effect on normal cells [3] | GI50 [4] [µM]
1 | O=C(Nc1ccccc1)Nc1cc(-c2ccc3cncnc3c2)ccn1 [Compound 4a, 1-Phenyl-3-(4-(quinazolin-7-yl)pyridin-2-yl)urea] | > 10 | 332 to 335 | > 10 |  |  | 
2 | O=C(Nc1cccc(F)c1)Nc1cc(-c2ccc3cncnc3c2)ccn1 [Compound 4b, 1-(3-Fluorophenyl)-3-(4-(quinazolin-7-yl)pyridin-2-yl)urea] | > 10 |  | > 10 |  |  | 
3 | O=C(Nc1ccc(F)cc1)Nc1cc(-c2ccc3cncnc3c2)ccn1 [Compound 4c, 1-(4-Fluorophenyl)-3-(4-(quinazolin-7-yl)pyridin-2-yl)urea] | > 10 |  | > 10 |  |  | 
4 | COc1cccc(NC(=O)Nc2cc(-c3ccc4cncnc4c3)ccn2)c1 [Compound 4d, 1-(3-Methoxyphenyl)-3-(4-(quinazolin-7-yl)pyridin-2-yl)urea] | > 10 |  | > 10 |  |  | 
5 | COc1ccc(NC(=O)Nc2cc(-c3ccc4cncnc4c3)ccn2)cc1 [Compound 4e, 1-(4-Methoxyphenyl)-3-(4-(quinazolin-7-yl)pyridin-2-yl)urea] | > 10 |  | > 10 |  |  | 
6 | O=C(Nc1cccc(C(F)(F)F)c1)Nc1cc(-c2ccc3cncnc3c2)ccn1 [Compound 4f, 1-(4-(Quinazolin-7-yl)pyridin-2-yl)-3-(3-(trifluoromethyl)phenyl)urea] | > 10 | 328 to 331 | > 10 |  |  | 
7 | O=C(Nc1cccc(OC(F)(F)F)c1)Nc1cc(-c2ccc3cncnc3c2)ccn1 [Compound 4g, 1-(4-(Quinazolin-7-yl)pyridin-2-yl)-3-(3-(trifluoromethoxy)phenyl)urea] | > 10 |  | > 10 |  |  | 
8 | O=C(Nc1ccc(F)c(Cl)c1)Nc1cc(-c2ccc3cncnc3c2)ccn1 [Compound 4h, 1-(3-Chloro-4-fluorophenyl)-3-(4-(quinazolin-7-yl)pyridin-2-yl)urea] | > 10 | 318 to 321 | > 10 |  |  | 
9 | C=CCNC(=O)Nc1cc(-c2ccc3cncnc3c2)ccn1 [Compound 4i, 1-Allyl-3-(4-(quinazolin-7-yl)pyridin-2-yl)urea] | 3.35 ± 0.101 | 190 to 193 | > 10 |  |  | 
10 | O=C(Nc1cc(-c2ccc3cncnc3c2)ccn1)NC1CCCC1 [Compound 4j, 1-Cyclopentyl-3-(4-(quinazolin-7-yl)pyridin-2-yl)urea] | > 10 | 223 to 226 | > 10 |  |  | 
11 | O=C(NCc1ccccc1)Nc1cc(-c2ccc3cncnc3c2)ccn1 [Compound 4k, 1-Benzyl-3-(4-(quinazolin-7-yl)pyridin-2-yl)urea] | 3.03 ± 0.061 | 221 to 224 | > 10 |  |  | 
12 | O=C(NCCc1ccccc1)Nc1cc(-c2ccc3cncnc3c2)ccn1 [Compound 4l, 1-Phenethyl-3-(4-(quinazolin-7-yl)pyridin-2-yl)urea] | 9 ± 0.347 | 260 to 263 | > 10 |  |  | 
13 | O=C(NCCc1ccccc1F)Nc1cc(-c2ccc3cncnc3c2)ccn1 [Compound 4m, 1-(2-Fluorophenethyl)-3-(4-(quinazolin-7-yl)pyridin-2-yl)urea] | > 10 | 272 to 275 | > 10 |  |  | 
14 | O=C(NCCc1ccc(F)cc1)Nc1cc(-c2ccc3cncnc3c2)ccn1 [Compound 4n, 1-(4-Fluorophenethyl)-3-(4-(quinazolin-7-yl)pyridin-2-yl)urea] | > 10 | 214 to 217 | > 10 |  |  | 
15 | CCc1c2c(nc3ccc(OC(=O)N4CCC(N5CCCCC5)CC4)cc13)-c1cc3c(c(=O)n1C2)COC(=O)[C@]3(O)CC [Irinotecan, reference compound] | 0.35 ± 0.069 |  | 0.62 ± 0.003 |  |  | 
16 | CNC(=O)c1cc(Oc2ccc(NC(=O)Nc3ccc(Cl)c(C(F)(F)F)c3)cc2)ccn1 [Sorafenib] |  |  |  |  |  | 11.2

Second part, led by results:

Row | GI50 [1] [µM] | melting point [°C] | GI50 [2] [µM] | SMILES | potency compared to the positive control drug Irinotecan ([1]; MCF7 cancer cell line, ratio of GI50 values) [fold] | cell growth inhibitory effect on normal cells [3] | GI50 [4] [µM]
17 | 0.06 ± 0.014 | 218 to 221 | 1.19 ± 0.035 | COc1n[nH]c2ccc(-c3ccnc(NC(=O)Nc4ccccc4)c3)cc12 [Compound 8a, 1-(4-(3-Methoxy-1H-indazol-5-yl)pyridin-2-yl)-3-phenylurea] | 6 | excellent safety profiles; also recorded: low cytotoxicity | 
18 | > 10 | 229 to 232 | > 10 | COc1n[nH]c2ccc(-c3ccnc(NC(=O)Nc4cccc(F)c4)c3)cc12 [Compound 8b, 1-(3-Fluorophenyl)-3-(4-(3-methoxy-1H-indazol-5-yl)pyridin-2-yl)urea] |  |  | 
19 | 3.73 ± 0.075 | 229 to 232 | 1.22 ± 0.141 | COc1n[nH]c2ccc(-c3ccnc(NC(=O)Nc4ccc(F)cc4)c3)cc12 [Compound 8c, 1-(4-Fluorophenyl)-3-(4-(3-methoxy-1H-indazol-5-yl)pyridin-2-yl)urea] |  |  | 
20 | 1.89 ± 0.26 | 230 to 233 | > 10 | COc1cccc(NC(=O)Nc2cc(-c3ccc4[nH]nc(OC)c4c3)ccn2)c1 [Compound 8d, 1-(4-(3-Methoxy-1H-indazol-5-yl)pyridin-2-yl)-3-(3-methoxyphenyl)urea] |  |  | 
21 | 4.37 ± 0.359 | 240 to 242 | > 10 | COc1ccc(NC(=O)Nc2cc(-c3ccc4[nH]nc(OC)c4c3)ccn2)cc1 [Compound 8e, 1-(4-(3-Methoxy-1H-indazol-5-yl)pyridin-2-yl)-3-(4-methoxyphenyl)urea] |  |  | 
22 | 0.89 ± 0.209 | 300 to 305 | 0.92 ± 0.114 | COc1n[nH]c2ccc(-c3ccnc(NC(=O)Nc4ccc(F)c(Cl)c4)c3)cc12 [Compound 8f, 1-(3-Chloro-4-fluorophenyl)-3-(4-(3-methoxy-1H-indazol-5-yl)pyridin-2-yl)urea] |  |  | 
23 | 1.17 ± 0.059 | 222 to 225 | 1.25 ± 0.037 | COc1n[nH]c2ccc(-c3ccnc(NC(=O)NC4CCCC4)c3)cc12 [Compound 8g, 1-Cyclopentyl-3-(4-(3-methoxy-1H-indazol-5-yl)pyridin-2-yl)urea] |  |  | 
24 | 0.23 ± 0.015 | 230 to 233 | 0.33 ± 0.042 | COc1n[nH]c2ccc(-c3ccnc(NC(=O)NCc4ccccc4)c3)cc12 [Compound 8h, 1-Benzyl-3-(4-(3-methoxy-1H-indazol-5-yl)pyridin-2-yl)urea] |  | excellent safety profiles; also recorded: low cytotoxicity | 
25 | 0.16 ± 0.013 | 200 to 203 | 1.08 ± 0.006 | COc1n[nH]c2ccc(-c3ccnc(NC(=O)NCCc4ccccc4)c3)cc12 [Compound 8i, 1-(4-(3-Methoxy-1H-indazol-5-yl)pyridin-2-yl)-3-phenethylurea] |  | excellent safety profiles; also recorded: low cytotoxicity | 
26 | 0.75 ± 0.142 | 208 to 211 | > 10 | COc1n[nH]c2ccc(-c3ccnc(NC(=O)NCCc4ccccc4F)c3)cc12 [Compound 8j, 1-(2-Fluorophenethyl)-3-(4-(3-methoxy-1H-indazol-5-yl)pyridin-2-yl)urea] |  |  | 
27 | 1.13 ± 0.003 | 209 to 212 | 1.38 ± 0.086 | COc1n[nH]c2ccc(-c3ccnc(NC(=O)NCCc4ccc(F)cc4)c3)cc12 [Compound 8k, 1-(4-Fluorophenethyl)-3-(4-(3-methoxy-1H-indazol-5-yl)pyridin-2-yl)urea] |  |  | 

Reference: article PMC10343686, “Integration of Hybridization Strategies in Pyridine–Urea Scaffolds for Novel Anticancer Agents: Design, Synthesis, and Mechanistic Insights” (Molecules, 2023)
